molecular target: His-tagged recombinant human TrkA (Homo sapiens (Human), UniProt P04629); assay: TrkA LanthaScreen Eu Kinase Binding Assay; conditions: averaged IC50; TR-FRET binding, 60 min, 22° C.; read-out: TrkA Enzyme IC50
In short: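 Three-fold compound dilutions (2% DMSO final) were incubated 60 min at 22° C. with 5 nM His-TrkA cytoplasmic domain, tracer 236 (4 nM), biotinylated anti-His (2 nM) and europium streptavidin (2 nM) in MOPS pH 7.5 buffer. Emission ratio 665/615 gave percent of control; four-parameter fit yielded IC50.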

Chain of His-tagged recombinant human TrkA (P04629 440-796): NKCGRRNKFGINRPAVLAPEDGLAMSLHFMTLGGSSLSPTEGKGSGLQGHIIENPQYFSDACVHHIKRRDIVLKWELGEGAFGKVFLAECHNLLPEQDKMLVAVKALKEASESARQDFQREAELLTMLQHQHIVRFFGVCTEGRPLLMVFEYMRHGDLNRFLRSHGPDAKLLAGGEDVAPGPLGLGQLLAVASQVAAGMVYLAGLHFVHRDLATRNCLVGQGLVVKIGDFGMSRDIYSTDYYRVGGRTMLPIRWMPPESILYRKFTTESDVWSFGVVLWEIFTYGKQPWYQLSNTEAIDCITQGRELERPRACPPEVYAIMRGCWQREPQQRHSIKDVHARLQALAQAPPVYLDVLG

IC50, < 100 nM:
CNC(=O)c1nn(-c2ccccc2)c(NC(=O)N[C@@H]2c3ccccc3C(C)(C)[C@H](OC)[C@H]2O)c1C [Example 156, 5-(3-((r-1,t-2,c-3)-2-hydroxy-3-methoxy-4,4-dimethyl-1,2,3,4-tetrahydronaphthalen-1-yl)ureido)-N,4-dimethyl-1-phenyl-1H-pyrazole-3-carboxamide]
CO[C@@H]1[C@@H](O)[C@H](NC(=O)Nc2c(C)c(-c3cnn(C)c3)nn2-c2ccccc2)c2ccccc2C1(C)C [Example 157, 1-(1′,4-dimethyl-1-phenyl-1H,1′H-[3,4′-bipyrazol]-5-yl)-3-((r-1,t-2,c-3)-2-hydroxy-3-methoxy-4,4-dimethyl-1,2,3,4-tetrahydronaphthalen-1-yl)urea]
CO[C@@H]1[C@@H](O)[C@H](NC(=O)Nc2c(C)c(OCC3CCN(C)CC3)nn2-c2ccccc2)c2ccccc2C1(C)C [Example 158, 1-((r-1,t-2,c-3)-2-hydroxy-3-methoxy-4,4-dimethyl-1,2,3,4-tetrahydronaphthalen-1-yl)-3-(4-methyl-3-((1-methylpiperidin-4-yl)methoxy)-1-phenyl-1H-pyrazol-5-yl)urea]

— US10351575B2, “Bicyclic urea, thiourea, guanidine and cyanoguanidine compounds useful for the treatment of pain” (Array BioPharma Inc., priority 2012, dated 2019)
